Data on 24 compounds can be found in PubChem BioAssay (NCI).

Test in all cases: NCI tumour cell line growth inhibition, 48 h
The subject of assay [1] is A498 renal.
The subject of assay [2] is CAKI-1 renal.
The test system of assay [3] is HCC-2998 colon.
The subject of assay [4] is HL-60(TB) leukemia.
Assay [5] concerns HOP-62 NSCLC.
The test system of assay [6] is LOX IMVI melanoma.
In assay [7] the test system is OVCAR-3 ovarian.
The subject of assay [8] is UO-31 renal.

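All cell lines were grown in 96-well plates and treated with compound for 48 hours. Here, GI50 denotes the concentration required for 50% inhibition of growth. Definition used: TGI = concentration required for complete inhibition of growth.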

For the compound `CC(=O)NC(CC(C)C)C(=O)NC(Cc1ccccc1)C(=S)N1CCCC1` (centres undefined), the TGI in assay [1], in assay [2], in assay [3], in assay [4], in assay [5] and in assay [6] was > 100 µM throughout. Besides, the TGI in assay [7] and in assay [8] was > 100 µM throughout.

As to `Cc1ccc(S(=O)(=O)N/N=C(/c2nc3ccc([N+](=O)[O-])cc3[nH]c2=O)C(O)c2ccc(C(O)/C(=N\NS(=O)(=O)c3ccc(C)cc3)c3nc4ccc([N+](=O)[O-])cc4[nH]c3=O)cc2)cc1` (centres undefined), the TGI in assay [1] was > 100 µM; in assay [3], 77.4 µM; in assay [4] it was 98.3 µM; in assay [5], > 100 µM; in assay [6] it was > 100 µM; in assay [7], > 100 µM. Also, the TGI in assay [8] was > 100 µM.

For `Cc1c(/C=N/N(C)C)oc2c1cc(O)c1ncccc12`, the TGI in assay [1] was 82 µM; in assay [2] it was 22.4 µM; in assay [3], > 100 µM; in assay [4] it was 6.46 µM; in assay [5] it was > 100 µM; in assay [6], 45.2 µM. Besides, the TGI in assay [8] came to 7.12 µM.

Take `O=P(O)(O)C1(P(=O)(O)O)CC1`: the TGI in assay [1], in assay [2], in assay [3], in assay [5], in assay [6] and in assay [7] was > 100 µM each time. In assay [8], the TGI was > 100 µM.

For the compound `O=C(NNc1ccccc1)/C(=C/c1ccc2c(c1)OCO2)NC(=O)c1ccccc1`, the TGI in assay [1], in assay [2], in assay [3], in assay [4], in assay [5] and in assay [6] was > 100 µM each time. The TGI in assay [7] and in assay [8] was > 100 µM each time.

Regarding `CC(C)(C)C(C#N)(C#N)c1ccc(C(C#N)(C#N)C(C)(C)C)nn1`, the TGI in assay [2], in assay [3], in assay [4], in assay [5], in assay [6] and in assay [7] was > 100 µM in each case. The TGI in assay [8] is > 100 µM.

As to `Brc1ccc2ns[s+]c2c1`, the TGI in assay [1] is > 100 µM; in assay [2], > 100 µM; in assay [3], 25.8 µM; in assay [4] it was > 100 µM; in assay [5], > 31.6 µM; in assay [6], > 100 µM. Also, the figures for the TGI in assay [7] and in assay [8] were > 100 µM and > 30.7 µM, respectively.

Consider `CC1=C(C(=O)Nc2cc(F)c(F)cc2F)C(c2ccc([N+](=O)[O-])cc2)C(C(=O)Nc2cc(F)c(F)cc2F)=C(C)N1`, for which the TGI was 87.1 µM in assay [1]; > 100 µM in assay [2]; 60.5 µM in assay [3]; 35.7 µM in assay [4]; > 100 µM in assay [5]; > 100 µM in assay [6]. Moreover, the results for the TGI in assay [7] and in assay [8] were 80.8 µM and 70.6 µM, respectively.

On to `COc1cc(CCc2ccc(N)cc2)cc(OC)c1OC`, for which the TGI is > 100 µM in assay [1]; > 100 µM in assay [2]; > 100 µM in assay [3]; > 92.5 µM in assay [4]; > 100 µM in assay [5]; > 100 µM in assay [6]. The TGI is > 100 µM in assay [7] and > 93.1 µM in assay [8].

As to `CC(=O)OC1COC(n2c(=S)n(-c3ccccc3)c(=O)c3ccccc32)C(OC(C)=O)C1OC(C)=O` (centres undefined), the TGI in assay [1], in assay [2], in assay [3], in assay [4], in assay [5] and in assay [6] was > 100 µM each time. Also, the TGI in assay [7] and in assay [8] was > 100 µM in each case.

In the case of `O=C(Nc1nc2c(ncn2C2OC(CO)C(O)C2O)c(=O)[nH]1)c1ccccc1` (centres undefined), the TGI in assay [1], in assay [2], in assay [4], in assay [5], in assay [6] and in assay [7] was > 100 µM each time. Also, the TGI in assay [8] is > 100 µM.

Turning to `CC(=O)NNc1nc(C)c(C(=O)NNC(=O)C(=O)Nc2ccc(Cl)cc2Cl)s1`, the TGI in assay [2] is 75.5 µM; in assay [3] it was > 100 µM; in assay [4] it was 99.2 µM; in assay [5], > 100 µM; in assay [6], > 100 µM; in assay [7], 50.5 µM. The TGI in assay [8] came to 98.2 µM.

For the compound `CCCCCCC[CH2][Sn]1([CH2]CCCCCCC)[O]C(=O)c2cccnc2[O]1`, the GI50 in assay [1], in assay [2], in assay [3], in assay [4], in assay [6] and in assay [7] was > 100 µM in each case. In assay [8], the GI50 was > 100 µM. For the same compound, the TGI in assay [1], in assay [2], in assay [3], in assay [4], in assay [6] and in assay [7] was > 100 µM throughout. Further, the TGI in assay [8] is > 100 µM.

With `CCOc1ccc(NC(=O)CC2C(=O)Nc3ccccc3S2(=O)=O)cc1` (centres undefined), the TGI in assay [1], in assay [3], in assay [4], in assay [5], in assay [6] and in assay [7] was > 100 µM each time. In addition, in assay [8], the TGI was > 100 µM.

Turning to `C=CCc1cc(OC)c2c(c1)C(OC)CC(c1ccc(OC)c(OC)c1)O2` (centres undefined), the TGI in assay [1], in assay [2], in assay [3], in assay [4], in assay [5] and in assay [6] was > 100 µM in each case. In addition, the TGI in assay [7] and in assay [8] was > 100 µM in each case.

`CCSc1c2ccccc2c(-c2nc(F)nc(F)n2)n1CCc1ccccc1`: the TGI in assay [1], in assay [2], in assay [3], in assay [4], in assay [5] and in assay [6] was > 100 µM in each case. Further, the TGI in assay [7] and in assay [8] was > 100 µM throughout.

As to `Nc1ncnc2c1ncn2C1CC(OCc2ccccc2[N+](=O)[O-])C(CO)O1` (centres undefined), the TGI in assay [1] was > 50 µM; in assay [3], > 50 µM; in assay [4] it was 31.6 µM; in assay [5], > 50 µM; in assay [6], > 50 µM; in assay [7] it was > 50 µM. Further, in assay [8], the TGI was 48 µM.

As to `CC1(c2ccc(Cl)cc2)C2C(=O)NC(=O)C1C(=O)NC2=O` (centres undefined), the TGI in assay [1], in assay [2], in assay [3], in assay [4], in assay [5] and in assay [6] was > 100 µM in each case. Further, the TGI in assay [7] and in assay [8] was > 100 µM in each case.

Regarding `CCOC(=O)C1(C)CCCCC(=O)N1` (centres undefined), the TGI in assay [2], in assay [3], in assay [4], in assay [5], in assay [6] and in assay [7] was > 100 µM in each case. Moreover, in assay [8], the TGI is > 100 µM.

With `COc1ccc(/C=C/C(=O)c2sc(-n3nc(-c4ccccc4)cc3-c3ccccc3)nc2C)cc1`, the GI50 in assay [1], in assay [3], in assay [5] and in assay [6] was > 100 µM each time. The TGI in assay [1], in assay [2], in assay [3], in assay [5], in assay [6] and in assay [7] was > 100 µM in each case. In addition, the TGI in assay [8] is > 100 µM.

Regarding `Cn1nc(-c2ccccc2)c2c(/C=C/c3ccccc3)onc2c1=O`, the TGI in assay [1], in assay [2], in assay [3], in assay [4], in assay [5] and in assay [6] was > 100 µM in each case. In addition, the TGI in assay [7] and in assay [8] was > 100 µM in each case.

With `CC(=O)O[C@H]1CC[C@@]2(C)C(=CC[C@@H]3C2CC[C@]2(C)Nc4nc5ccccc5cc4CC32)C1` (some centres undefined), the TGI in assay [1] was 18.9 µM; in assay [2], 18.4 µM; in assay [3] it was 10.8 µM; in assay [4] it was 17.7 µM; in assay [5] it was 26.7 µM; in assay [7], 8.53 µM. Further, the TGI in assay [8] is 16.9 µM.

Regarding `CC(=O)C1=C(O)C2C3c4c[nH]c5cccc(c45)CC3C(C)(C)N2C1=O` (centres undefined), the TGI was 98.2 µM in assay [1]; > 100 µM in assay [2]; 63.4 µM in assay [3]; 9.85 µM in assay [4]; 22.4 µM in assay [5]; 67.3 µM in assay [6]. Moreover, the TGI in assay [7] worked out at 74.3 µM; in assay [8] it was 81.6 µM.

As for `ClC(Cl)[Si]12OCCN(CCO1)CCO2`, the TGI in assay [1], in assay [2], in assay [3], in assay [4], in assay [7] and in assay [8] was > 100 µM throughout.
